Laboratory results from article PMC4148704, “Agaricus meleagris pyranose dehydrogenase: Influence of covalent FAD linkage on catalysis and stability” (Archives of Biochemistry and Biophysics, 2014).

Target: T1, AmPDH (Agaricus meleagris pyranose dehydrogenase) (Macropsalliota meleagris, UniProt Q3L245)
T1 construct: gene pdh1; recombinant from Pichia pastoris X-33, secreted glycoprotein, about 75 kDa, monomer, 577 amino acids, covalent 8alpha-N(3)-histidyl FAD at H103
Assay: stopped-flow reductive half-reaction, […] nm
Assay type: biochemical
Conditions: pH 7.5, 65 mM sodium phosphate, 30 °C; 0.1-5 mM D-glucose; only a bimolecular rate constant

T1 sequence (Q3L245 26-602): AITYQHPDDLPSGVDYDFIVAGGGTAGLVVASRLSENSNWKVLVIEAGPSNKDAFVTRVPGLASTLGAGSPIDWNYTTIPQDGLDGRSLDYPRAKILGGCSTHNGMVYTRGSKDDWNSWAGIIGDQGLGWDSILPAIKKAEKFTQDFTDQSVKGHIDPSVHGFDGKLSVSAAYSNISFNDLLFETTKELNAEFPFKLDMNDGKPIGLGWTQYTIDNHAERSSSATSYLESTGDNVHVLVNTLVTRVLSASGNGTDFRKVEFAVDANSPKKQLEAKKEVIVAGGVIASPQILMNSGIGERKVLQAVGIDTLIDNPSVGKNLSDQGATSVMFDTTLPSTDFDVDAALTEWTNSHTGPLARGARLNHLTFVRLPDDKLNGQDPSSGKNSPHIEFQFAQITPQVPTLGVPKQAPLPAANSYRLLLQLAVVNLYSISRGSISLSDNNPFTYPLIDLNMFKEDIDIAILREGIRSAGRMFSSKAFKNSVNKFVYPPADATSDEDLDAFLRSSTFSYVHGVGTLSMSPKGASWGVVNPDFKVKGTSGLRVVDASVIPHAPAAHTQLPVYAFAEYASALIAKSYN

OC[C@H]1OC(O)[C@H](O)[C@@H](O)[C@@H]1O (stereo partly drawn) [D-glucose]
kapp: spectral changes of wild-type AmPDH upon addition of D-glucose
